The source of these data is patent publication US20190298674A1 (Ovid Therapeutics, Inc., priority 2018, published 2019).

The nature of data set [1]: in vivo. To be noted: plasma.
From the text: (§1) “PK” refers to the pharmacokinetic profile. Cmax is defined as the highest plasma drug concentration estimated during an experiment (ng/ml). Tmax is defined as the time when Cmax is estimated (min). AUC0-∞ is the total area under the plasma drug concentration-time curve, from drug administration until the drug is eliminated (ng·hr/ml). The area under the curve is governed by clearance. Clearance is defined as the volume of blood or plasma that is totally cleared of its content of drug per unit time (ml/min).
Data set [2] in a line: plasma pharmacokinetics. To be noted: in the dose range 5 mg-500 mg.
From the text: as §1

By half-life is commonly meant the time in which the quantity being followed falls by half.

As for `N[C@H]1C[C@@H](C(=O)O)CC1=C(F)F`, the half-life in data set [1] was in the range of 4 to 6 h. For the same compound, in data set [2], the AUCs dose proportionality result is given as “greater than proportional increase”.
